Source: patent US20150005311A1, “IP receptor agonist heterocyclic compounds” (NOVARTIS AG, priority 2012, published 2015)

Biological target: T1, IP receptor (Homo sapiens, UniProt P43119)
T1 construct: expressed in transfected cells; host or cells: CHO cells stably expressing the IP receptor (CHO-IP)
Experiment: cAMP accumulation in CHO cells stably expressing the IP receptor (CHO-IP), PerkinElmer AlphaScreen assay
Format: cell-based
Settings: 1 hour at room temperature, 4-parameter logistic fit
Description: Activity of compounds at the IP receptor (IP receptor) is assessed by measuring cAMP accumulation in CHO cells stably expressing the IP receptor (CHO-IP) using the PerkinElmer AlphaScreen assay. This technology measures the endogenous production of cAMP, in a non-radioactive luminescence proximity homogenous assay. A biological reaction occurs between streptavidin coated donor beads, biotinylated cAMP and anti-cAMP acceptor beads, bringing the donor and acceptor beads close enough together so that upon excitation a fluorescence signal is produced. On production of endogenous cAMP, competition between the biotinylated cAMP and cellular-derived cAMP causes a reduction in the fluorescent signal. The reduction in signal is proportional to the amount of cAMP being produced, thus it is possible to quantify the amount of cAMP being produced on stimulation with agonist.
Test and reference compounds are prepared at 100×[final] in 100% DMSO, and diluted 1:3 using a Biomek Fx (Beckman Coulter). This is followed by an intermediate dilution to give 5×[final] in assay buffer (HBSS containing 5 mM HEPES, 0.1% (w/v) BSA). 5 μL of 5×[final] test compounds, reference compounds and buffer/DMSO control are then transferred to a 384-well white OptiPlate, containing 20 μL CHO-IP cell suspension (15,000 cells/well, prepared from frozen), and plate is incubated at room temperature for 1 hour. A cAMP standard curve is constructed for each experiment (concentration range of 10000 nM to 0.001 nM, in assay buffer) and 25 μL of each concentration added to the last two columns of the assay plate. The incubation is terminated by the addition of lysis buffer (dH2O; 0.3% (v v^−1) Tween-20) containing 20 units mL^−1 streptavidin coated donor beads and biotinylated cAMP (pre-incubated for 30 minutes) and 20 units mL^−1 anti-cAMP acceptor beads, which are added to the lysis buffer just before addition to the assay plate. The assay plate is then incubated at room temperature in the dark, for 60 minutes with gentle shaking, and read on the Envision plate reader (Perkin Elmer).
The raw data of the reference compounds, test compounds and controls are converted into cAMP concentrations, using the cAMP standard curve, in GraphPadPrism (GraphPad Software Inc). EC50 as well as maximal values of the agonist curves are determined using a 4-parameter logistic equation. The % maximum response values of all test compounds are determined using the top of the treprostinil concentration-response curve.

T1 sequence (P43119 whole entry): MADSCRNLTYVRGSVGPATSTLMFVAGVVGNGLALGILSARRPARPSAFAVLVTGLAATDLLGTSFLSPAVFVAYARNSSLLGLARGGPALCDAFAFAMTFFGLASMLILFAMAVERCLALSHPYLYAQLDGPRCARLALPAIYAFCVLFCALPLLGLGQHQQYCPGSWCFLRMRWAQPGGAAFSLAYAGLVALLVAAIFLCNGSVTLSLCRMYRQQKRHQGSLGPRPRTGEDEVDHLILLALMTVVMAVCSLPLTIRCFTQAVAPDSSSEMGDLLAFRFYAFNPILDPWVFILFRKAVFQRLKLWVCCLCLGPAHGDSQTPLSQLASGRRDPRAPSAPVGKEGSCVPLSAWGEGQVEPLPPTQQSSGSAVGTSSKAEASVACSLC

Structure (SMILES) | EC50 [nM]
Cc1ccc(-c2nc3c(nc2-c2ccc(C)cc2)N(CCCCCCc2nnn[nH]2)CC(O)C3)cc1 (racemic) [Example 3, rac-5-(6-(1H-Tetrazol-5-yl)hexyl)-2,3-di-p-tolyl-5,6,7,8-tetrahydropyrido[2,3-b]pyrazin-7-ol] | 0.04
Cc1ccc(-c2nc3c(nc2-c2ccc(C)cc2)N(CCCCCc2nnn[nH]2)CC(O)C3)cc1 (racemic) [Example 4, rac-5-(5-(1H-Tetrazol-5-yl)pentyl)-2,3-di-p-tolyl-5,6,7,8-tetrahydropyrido[3,2-b]pyrazin-7-ol] | 5.63
Cc1ccc(-c2nc3c(nc2-c2ccc(C)cc2)N(CCCCCCc2nnn[nH]2)CC(O)C3)cc1 (single isomer, unassigned) [Example 3a, (R)- or (S)-5-(6-(1H-tetrazol-5-yl)hexyl)-2,3-di-p-tolyl-5,6,7,8-tetrahydropyrido[2,3-b]pyrazin-7-ol]] | 2.06
Cc1ccc(-c2nc3c(nc2-c2ccc(C)cc2)N(CCCCCCc2nnn[nH]2)CC(O)C3)cc1 (single isomer, unassigned) [Example 3b, (R)- or (S)-5-(6-(1H-tetrazol-5-yl)hexyl)-2,3-di-p-tolyl-5,6,7,8-tetrahydropyrido[2,3-b]pyrazin-7-ol]] | 1.71
Cc1ccc(-c2nc3c(nc2-c2ccc(C)cc2)N(CCCCCCc2nnn[nH]2)CCC3)cc1 [Example 1, 5-(6-(1H-Tetrazol-5-yl)hexyl)-2,3-di-p-tolyl-5,6,7,8-tetrahydropyrido[2,3-b]pyrazine] | 0.11
Cc1ccc(-c2nc3c(nc2-c2ccc(C)cc2)N(CCCCCc2nnn[nH]2)CCC3)cc1 [Example 2, 5-(5-(1H-tetrazol-5-yl)pentyl)-2,3-di-p-tolyl-5,6,7,8-tetrahydropyrido[2,3-b]pyrazine] | 0.07

Now from value to compound:

EC50 [nM] | Structure (SMILES)
0.62 | Cc1ccc(-c2nc3c(nc2-c2ccc(C)cc2)N(CCCCCc2nnn[nH]2)CC(O)C3)cc1 (single isomer, unassigned) [Example 4a, (R)- or (S)-5-(5-(1H-Tetrazol-5-yl)pentyl)-2,3-di-p-tolyl-5,6,7,8-tetrahydropyrido[2,3-b]pyrazin-7-ol]]
0.86 | Cc1ccc(-c2nc3c(nc2-c2ccc(C)cc2)N(CCCCCc2nnn[nH]2)CC(O)C3)cc1 (single isomer, unassigned) [Example 4b, (R)- or (S)-5-(5-(1H-Tetrazol-5-yl)pentyl)-2,3-di-p-tolyl-5,6,7,8-tetrahydropyrido[2,3-b]pyrazin-7-ol]]
